Consider seven substances from US8987193B2, “Nisin derivatives and the use thereof” (University College Cork—National University of Ireland, Cork, priority 2008, dated 2015).

The test system of test [1] is Staph. aureus DPC5245. As to the kind of experiment: Activity of concentrated peptide preparations. In kind it is cell-based. Particulars: data not shown. An excerpt:
(§1) The most common post-translational modifications of lantibiotics involve the dehydration of serine to dehydroalanine (Dha) and of threonine to dehydrobutyrine (Dhb). These dehydrated residues interact with cysteine to form intramolecular lanthionine and β-methyllanthionine bridges, respectively.

Test [2] deals with L. lactis HP. Put plainly: Activity of concentrated peptide preparations. In kind it is cell-based. Particulars: data not shown.
Source text: as §1

The test system of test [3] is Strep. agalactiae ATCC13813. Put plainly: Activity of concentrated peptide preparations. Format: cell-based. The following applies: data not shown.
Source text: as §1

For another test, the system named is L. plantarum CBC6. Put plainly: Deferred antagonism assay. In kind it is cell-based, Lactobacillus plantarum. Set-up: key: + = Enhanced bioactivity relative to control; − = Bioactivity equal to or less than control; NA = no activity evident. The following applies: producing strain. The method, boiled down:
(§2)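 Well-diffusion testing of purified nisin variants in 0.005% acetic acid, serially diluted, 37° C overnight; AU/ml = reciprocal of last dilution with definite zone × 20. Deferred antagonism: overnight GM17 colonies overlaid with seeded soft agar (0.75%); zone = clearing diameter minus 5 mm.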

The subject of a further test is L. lactis CBC8. As to the kind of experiment: Deferred antagonism assay. Format: cell-based. Also on record: key: + = Enhanced bioactivity relative to control; − = Bioactivity equal to or less than control; NA = no activity evident. Particulars: producing strain. The method, boiled down:
as §2

The next test relates to L. lactis CBC7. As to the kind of experiment: Deferred antagonism assay. In kind it is cell-based. Also on record: key: + = Enhanced bioactivity relative to control; − = Bioactivity equal to or less than control; NA = no activity evident. Particulars: producing strain. An outline of the steps:
as §2

For the next test, the system named is S. aureus CBC4. Put plainly: Deferred antagonism assay. Format: cell-based. Set-up: key: + = Enhanced bioactivity relative to control; − = Bioactivity equal to or less than control; NA = no activity evident. The following applies: producing strain. The method, boiled down:
as §2

A further test relates to C. sporogenes CBC5. Put plainly: Deferred antagonism assay. Format: cell-based, Clostridium sporogenes. Also on record: key: + = Enhanced bioactivity relative to control; − = Bioactivity equal to or less than control; NA = no activity evident. Particulars: producing strain.
The test system of another test is L. monocytogenes CBC3. Put plainly: Deferred antagonism assay. Particulars: producing strain; L. mono CBC3. Also on record: key: + = Enhanced bioactivity relative to control; − = Bioactivity equal to or less than control; NA = no activity evident. Format: cell-based, Listeria monocytogenes. An outline of the steps:
as §2

The next test relates to L. monocytogenes CBC2. As to the kind of experiment: Deferred antagonism assay. Particulars: producing strain; L. mono CBC2. In kind it is cell-based, Listeria monocytogenes. Also on record: key: + = Enhanced bioactivity relative to control; − = Bioactivity equal to or less than control; NA = no activity evident. The method, boiled down: as §2
Another test relates to L. monocytogenes CBC1. As to the kind of experiment: Deferred antagonism assay. Format: cell-based, Listeria monocytogenes. Set-up: key: + = Enhanced bioactivity relative to control; − = Bioactivity equal to or less than control; NA = no activity evident. Particulars: producing strain; L. mono CBC1. An outline of the steps: as §2
Test [4] relates to Staph. aureus DPC5245. Put plainly: Deferred antagonism assay. In kind it is cell-based. Particulars: producing strain; diameter of zone minus 5 mm; average of duplicates; St. aureus DPC5245. An outline of the steps:
(§3)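 Producer strains replicated on GM17 agar, grown overnight, then overlaid with soft agar (0.75% w/v) seeded with indicator strain. Zone size = clearing diameter minus 5 mm growth diameter, relative to NZ9800 pCI372nisA control; mean of duplicates.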

Test [5] has as its system Strep. agalactiae ATCC13813. As to the kind of experiment: Deferred antagonism assay. Particulars: producing strain, diameter of zone minus 5 mm, average of duplicates. In kind it is cell-based.
Test [6] relates to Staph. aureus ST528 (MRSA). As to the kind of experiment: Deferred antagonism assay. Format: cell-based. The following applies: producing strain, diameter of zone minus diameter of bacterial growth (5 mm), average of duplicates. The method, boiled down: as §3
In test [7] the test system is Strep. agalactiae ATCC13813. Put plainly: Deferred antagonism assay. In kind it is cell-based. Particulars: chromosomal replacement strains; Strep. agalactiae ATCC 13813.
The subject of a further test is indicator strains. As to the kind of experiment: Deferred antagonism assays, various indicator strains (summary). The following applies: for Strain(s) against which the derivative (producing strain) displays enhanced bioactivity: relative to nisin A-producing control, value = strains listed. In kind it is cell-based. An outline of the steps:
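Producer strains were replicated on GM17 or GM17 x-gal agar, grown overnight, then overlaid with GM17, BHI, TS or MH soft agar (0.75% w/v) seeded with the indicator strain. Zone size was taken as the clearing diameter minus the diameter of bacterial growth (5 mm).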

Another test deals with Staph. aureus ST528. As to the kind of experiment: Specific activity of purified peptide, equimolar concentrations. In kind it is cell-based.
Test [8] deals with Strep. agalactiae ATCC13813. Described as above. In kind it is cell-based.
Procedure: Deferred antagonism assays were performed by replicating strains on GM17 or GM17 x-gal agar plates and allowing them to grow overnight before overlaying with either GM17/BHI/TS/MH agar (0.75% w/v agar) seeded with the appropriate indicator strain. Zone size was calculated as the diameter of the zone of clearing minus the diameter of bacterial growth (5 mm) For higher throughput screening of N20PXX, XM21VX, XXK22T and XXX banks deferred antagonism assays were performed by replicating strains using a 96 pin replicator (Boekel) or spotting 5 μl of a fresh overnight culture on GM17 agar plates and allowing them to grow overnight. […] For well-diffusion assays molten agar was cooled to 48° C. and seeded with the appropriate indicator strain. The inoculated medium was rapidly transferred into sterile Petri plates in 50 ml volumes, allowed to solidify and dried. Wells (4.6 mm in diameter) were then made in the seeded plates. […] Bioactivity was expressed as arbitrary units/ml (AU/ml) and calculated as the reciprocal of the highest dilution that gave a definite zone multiplied by the conversion factor (i.e. 20 when 50 μl was used) (Ryan et al., 1996).
The next test has as its system Listeria innocua FH2051. As to the kind of experiment: Co-cultivation assay in GM17. Format: cell-based. The following applies: GM17, 30° C.
The subject of test [9] is L. lactis HP. As to the kind of experiment: Deferred antagonism assay. In kind it is cell-based, L. lactis spp cremoris. The following applies: producing strain.
Procedure: Deferred antagonism assays were performed by replicating strains on GM17 or GM17 x-gal agar plates and allowing them to grow overnight before overlaying with either GM17/BHI/TS/MH agar (0.75% w/v agar) seeded with the appropriate indicator strain. Zone size was calculated as the diameter of the zone of clearing minus the diameter of bacterial growth (5 mm) For higher throughput screening of N20PXX, XM21VX, XXK22T and XXX banks deferred antagonism assays were performed by replicating strains using a 96 pin replicator (Boekel) or spotting 5 μl of a fresh overnight culture on GM17 agar plates and allowing them to grow overnight. […] Additional sets of indicators were employed to further assess/reassess the bioactivity of a number of strains. […] For well-diffusion assays molten agar was cooled to 48° C. and seeded with the appropriate indicator strain. The inoculated medium was rapidly transferred into sterile Petri plates in 50 ml volumes, allowed to solidify and dried. […] Bioactivity was expressed as arbitrary units/ml (AU/ml) and calculated as the reciprocal of the highest dilution that gave a definite zone multiplied by the conversion factor (i.e. 20 when 50 μl was used) (Ryan et al., 1996).
In all cases the bioactivity of each variant was assessed by the size of the zone of inhibition in a deferred antagonism assay against various indicator strains. […]
The next test relates to Strep. pneumoniae. Particulars: cited from earlier work.

Where two headings read alike, the source gives them in different places. Ends that are not written are not given here.

Procedure for Listeria innocua FH2051: The indicator used for this trial was Listeria innocua FH2051 or L. monocytogenes EGDe. GM17 was co-inoculated with Listeria and the nisin variant producer being tested. […] The culture preparations were incubated at 30° C. Listeria numbers were determined on the basis of viable counts. For this purpose a dilution series were prepared at specific time intervals and plated onto Listeria selective agar base (Oxford formulation) (Oxoid Ltd.).
Assessment of the ability of nisin-variant producing lactococci to inhibit the growth of Listeria in broth: The ability of Listeria to survive in the presence of nisin-producing L. lactis strains was examined using a co-cultivation approach. Initial trials employed Listeria innocua FH2051 as a target.

“M21C: nisin A derivative, hinge substitution M21C (ITSISLCTPGCKTGALMGCNCKTATCHCSIHVSK; cysteine pairing not given here; also: lantibiotic nisin-A; UniProt P13068 24-57, looked up, variant M21C)”: the “activity relative to the wild-type peptide” value is given as “undetectable” with Staph. aureus DPC5245 [1], “drastically reduced” in the test on L. lactis HP [2] and “undetectable” in test [3]. Moreover, the “Bioactivity relative to control” value with L. plantarum CBC6, in the test on L. lactis CBC8, in the test with L. lactis CBC7, with S. aureus CBC4, in the test with C. sporogenes CBC5 and in the test with L. monocytogenes CBC3 was “−” each time. In addition, the “Bioactivity relative to control” value with L. monocytogenes CBC2 and with L. monocytogenes CBC1 was “−” throughout. Also, the “zone size relative to that of the NZ9800 pCI372nisA control” value (“zone size relative to that” for short) (in the test on Staph. aureus DPC5245 [4]; in test [5]; in test [6]) was 0% throughout.

In the case of “N20C: nisin A derivative, hinge substitution N20C (ITSISLCTPGCKTGALMGCCMKTATCHCSIHVSK; cysteine pairing not given here; also: lantibiotic nisin-A; UniProt P13068 24-57, looked up, variant N20C)”, the “activity relative to the wild-type peptide” value in the test with Staph. aureus DPC5245 [1] is reported as “undetectable”; in the test with L. lactis HP [2], “drastically reduced”; in [3], “undetectable”. The “zone size relative to that” value (in the test on Staph. aureus DPC5245 [4]; in test [5]; in [6]) was 0% throughout.

“NisinA K22S (ITSISLCTPGCKTGALMGCNMSTATCHCSIHVSK; not fully specified; also: lantibiotic nisin: dehydrated residues and thioether rings not placed; UniProt P13068 24-57, looked up, variant K22S) [nisin A derivative, hinge substitution K22S]”: the “bacteriocin production/bioactivity relative to L. lactis NZ9700” value in [7] was “enhanced”. Also, in the test with indicator strains, the “Strain(s) against which the derivative (producing strain) displays enhanced bioactivity” value (shortened to “Strain(s) against which the derivative”) is “Strep. agalactiae ATCC13813, Staph. aureus ST528 and Staph. aureus DPC5245 and L. monocytogenes CBC2 and CBC8 and L. lactis CBC8 and L. monocytogenes CBC2, L. lactis CBC8, S. aureus ST528”. Further, the “Bioactivity relative to control” value in the test on L. plantarum CBC6 is recorded as “−”; in the test on L. lactis CBC8, “+”; with L. lactis CBC7, “−”; with S. aureus CBC4, “−”; with C. sporogenes CBC5, “−”; with L. monocytogenes CBC3, “−”. Besides, the “Bioactivity relative to control” value is “+” in the test with L. monocytogenes CBC2 and “−” with L. monocytogenes CBC1. The “zone size relative to that” value was determined as 124% with Staph. aureus DPC5245 [4], 142% in test [5] and 154% in test [6].

On to “NisinA N20P (ITSISLCTPGCKTGALMGCPMKTATCHCSIHVSK; not fully specified; also: lantibiotic nisin: dehydrated residues and thioether rings not placed; UniProt P13068 24-57, looked up, variant N20P) [nisin A derivative, hinge substitution N20P]”, for which the “increased specific activity relative to nisin A” value in the test on Staph. aureus ST528 was found to be 100%. Besides, the “bacteriocin production/bioactivity relative to L. lactis NZ9700” value in test [7] is recorded as “enhanced”. In addition, the “reduction in specific activity relative to nisin A” value in [8] amounted to 75%. The “impact on growth of FH2051” value in the test on Listeria innocua FH2051 is listed as “reduced its numbers”. The “Strain(s) against which the derivative” value in the test with indicator strains is “CBC4, L. monocytogenes CBC3, C. sporogenes CBC5 and L. lactis CBC7”. The “Bioactivity relative to control” value in the test on L. plantarum CBC6 is on record as “−”; with L. lactis CBC8 it was “−”; in the test with L. lactis CBC7 it was “+”; with S. aureus CBC4, “+”; in the test with C. sporogenes CBC5 it was “+”; with L. monocytogenes CBC3, “+”. For the same substance, the “Bioactivity relative to control” value in the test on L. monocytogenes CBC2 and with L. monocytogenes CBC1 was “−” each time. Besides, in the test with L. lactis HP [9], the “bioactivity against L. lactis HP relative to control” value is listed as “enhanced”. Further, the “zone size relative to that” value with Staph. aureus DPC5245 [4] stood at 123%; in [5], 22%; in [6], 125%.

For “NisinA N20R (ITSISLCTPGCKTGALMGCRMKTATCHCSIHVSK; not fully specified; also: lantibiotic nisin: dehydrated residues and thioether rings not placed; UniProt P13068 24-57, looked up, variant N20R) [nisin A derivative, hinge substitution N20R]”, the “bioactivity of the producing strain, in words” value in the test on indicator strains (in general / against the strains tested) is listed as “greatly reduced bioactivities”. For the same substance, the “Strain(s) against which the derivative” value with indicator strains is “C. sporogenes CBC5”. Also, the “Bioactivity relative to control” value was “−” in the test with L. plantarum CBC6; “−” in the test with L. lactis CBC8; “−” with L. lactis CBC7; “−” with S. aureus CBC4; “+” with C. sporogenes CBC5; “−” with L. monocytogenes CBC3. For the same substance, the “Bioactivity relative to control” value with L. monocytogenes CBC2 and in the test with L. monocytogenes CBC1 was “−” throughout. Besides, the “zone size relative to that” value amounted to 53.5% in the test on Staph. aureus DPC5245 [4], 19% in test [5] and 0% in test [6].

On to “NisinA N20S (ITSISLCTPGCKTGALMGCSMKTATCHCSIHVSK; not fully specified; also: lantibiotic nisin: dehydrated residues and thioether rings not placed; UniProt P13068 24-57, looked up, variant N20S) [nisin A derivative, hinge substitution N20S]”, for which, in the test with indicator strains, the “Strain(s) against which the derivative” value was “L. monocytogenes CBC2, Staph. aureus CBC4 and C. sporogenes CBC5 and L. monocytogenes CBC2, S. aureus CBC4 and L. monocytogenes CBC2, S. aureus CBC4, C. sporogenes and CBC5”. Also, the “Bioactivity relative to control” value in the test with L. plantarum CBC6 was “−”; in the test with L. lactis CBC8, “−”; in the test on L. lactis CBC7 it was “−”; with S. aureus CBC4 it was “+”; in the test on C. sporogenes CBC5 it was “+”; in the test on L. monocytogenes CBC3, “−”. Further, the results for the “Bioactivity relative to control” value with L. monocytogenes CBC2 and in the test on L. monocytogenes CBC1 were “+” and “−”, respectively. The “zone size relative to that” value in the test on Staph. aureus DPC5245 [4] came to 87.5%; in [5] it was 72%; in test [6], 83.5%.

Consider nisin, for which the “minimum inhibitory concentration (MIC)” value in the test with Strep. pneumoniae (penicillin-susceptible strain before serial exposure to nisin) was 0.4 µg/mL; with Strep. pneumoniae (stable nisin-resistant mutants after serial exposure to nisin (1 mg/L)), 6.4 µg/mL.
